Measured values taken from US20160039879A1, “NOVEL CYCLOSPORIN DERIVATIVES AND USES THEREOF” (S&T Global Inc., priority 2013, published 2016).
Starred links: 1 amine or outer side, 2 acyl side, 3 side chain; linkers in the order of their positions; H or OH if unused. Non-standard residues stand in square brackets, D forms with d. Residues, ends and D or L forms follow the SMILES beside them. ξ: configuration not given here. X12 = COc1ccc(COC(C)(C)C[C@@H](C(=O)[*:2])N(C)[*:1])cc1; X8 = CN([C@@H](CC(C)(C)OCc1ccccc1)C(=O)[*:2])[*:1]; MeBmt = C/C=C/C[C@@H](C)[C@@H](O)[C@H](NC)C(=O)O; X3 = CN([C@H](SCCCN1CCOCC1)C(=O)[*:2])[*:1]; X1 = CCN(CC)CCCS[C@H](C(=O)[*:2])N(C)[*:1]; X7 = CCN(CC)CCS[C@@H](C(=O)[*:2])N(C)[*:1]; X13 = CCOCOC(C)(C)CC(C(=O)[*:2])N(C)[*:1]; X2 = CCN(CC)CCS[C@H](C(=O)[*:2])N(C)[*:1]; X4 = CC=CCC(C)C(O)C(C(=O)[*:2])N(C)[*:1]; X9 = CN(C(SCCCN1CCOCC1)C(=O)[*:2])[*:1]; NMeIle(3ξ) = CCC(C)[C@H](NC)C(=O)O; NMeL = CN[CH](CC(C)C)C(=O)O; NMeV = CN[CH](C(=O)O)C(C)C; Abu = CC[CH](N)C(=O)O

system: HCV replicon in cell line ET (luc-ubi-neo/ET), Huh7 human hepatoma cell line; assay: HCV subgenomic replicon assay (luciferase end point); type: cell-based; conditions: Hepatitis C virus, Huh-7, Table 10, HCV replicon, read-out: Antiviral activity EC50

Compound `C/C=C/C[C@@H](C)[C@@H](O)[C@H]1C(=O)N[C@@H](CC)C(=O)N(C)[C@H](SCCN(CC)CC)C(=O)N(C)[C@@H](C(C)CC)C(=O)N[C@@H](C(C)C)C(=O)N(C)[C@@H](CC(C)C)C(=O)N[C@@H](C)C(=O)N[C@H](C)C(=O)N(C)[C@@H](CC(C)C)C(=O)N(C)[C@@H](CC(C)C)C(=O)N(C)[C@@H](C(C)C)C(=O)N1C` (stereo partly drawn) [[(R)-2-(N,N-Diethylamino)ethylthio-Sar]-3-[NMeIle]-4-cyclosporin] (cyclo(A[dA][NMeL][NMeL][NMeV][MeBmt][Abu][X2][NMeIle(3ξ)]V[NMeL])) has an EC50 of 40 nM.

same assay, conditions: Hepatitis C virus, Huh-7, Table 11, HCV replicon, read-out: Antiviral activity EC50

Point of comparison: `C/C=C/C[C@@H](C)[C@@H](O)[C@H]1C(=O)N[C@@H](CC)C(=O)N(C)[C@H](SCCCN2CCOCC2)C(=O)N(C)[C@@H](CC(C)(C)O)C(=O)N[C@@H](C(C)C)C(=O)N(C)[C@@H](CC(C)C)C(=O)N[C@@H](C)C(=O)N[C@H](C)C(=O)N(C)[C@@H](CC(C)C)C(=O)N(C)[C@@H](CC(C)C)C(=O)N(C)[C@@H](C(C)C)C(=O)N1C` [[(R)-3-(N-Morpholino)propylthio-Sar]-3-[(γ-hydroxy)-NMeLeu]-4-cyclosporin], EC50 50 nM. Against it:
- C/C=C/C[C@@H](C)[C@@H](O)[C@H]1C(=O)N[C@@H](CC)C(=O)N(C)[C@H](SCCCN2CCOCC2)C(=O)N(C)[C@@H](CC(C)(C)OC)C(=O)N[C@@H](C(C)C)C(=O)N(C)[C@@H](CC(C)C)C(=O)N[C@@H](C)C(=O)N[C@H](C)C(=O)N(C)[C@@H](CC(C)C)C(=O)N(C)[C@@H](CC(C)C)C(=O)N(C)[C@@H](C(C)C)C(=O)N1C [[(R)-3-(N-Morpholino)propylthio-Sar]-3-[(γ-methoxy)-NMeLeu]-4-cyclosporin] — within 1.5-fold, 60 nM
- C/C=C/C[C@@H](C)[C@@H](O)[C@H]1C(=O)N[C@@H](CC)C(=O)N(C)[C@H](SCCCN(CC)CC)C(=O)N(C)[C@@H](CC(C)(C)O)C(=O)N[C@@H](C(C)C)C(=O)N(C)[C@@H](CC(C)C)C(=O)N[C@@H](C)C(=O)N[C@H](C)C(=O)N(C)[C@@H](CC(C)C)C(=O)N(C)[C@@H](CC(C)C)C(=O)N(C)[C@@H](C(C)C)C(=O)N1C [[(R)-3-(N,N Diethylamino)propylthio-Sar]-3-[(γ-hydroxy)-NMeLeu]-4-cyclosporin] — within 1.5-fold, 70 nM

same assay, conditions: Hepatitis C virus, Huh-7, Table 13, HCV replicon, read-out: Antiviral activity EC50

Point of comparison: `C/C=C/C[C@@H](C)[C@@H](O)[C@H]1C(=O)N[C@@H](CC)C(=O)N(C)[C@H](SCCCN(CC)CC)C(=O)N(C)[C@@H](C(C)CC)C(=O)N[C@@H](C(C)C)C(=O)N(C)[C@@H](CC(C)C)C(=O)N[C@@H](C)C(=O)N[C@H](C)C(=O)N(C)[C@@H](CC(C)C)C(=O)N(C)[C@@H](CC(C)C)C(=O)N(C)[C@@H](C(C)C)C(=O)N1C` (stereo partly drawn) [[(R)-3-(N,N-Diethylamino)propylthio-Sar]-3-[NMeIle]-4-cyclosporin] (cyclo(A[dA][NMeL][NMeL][NMeV][MeBmt][Abu][X1][NMeIle(3ξ)]V[NMeL])), EC50 80 nM. Against it:
- C/C=C/C[C@@H](C)[C@@H](O)[C@H]1C(=O)N[C@@H](CC)C(=O)N(C)[C@H](CSCCN(CC)CC)C(=O)N(C)[C@@H](CC(C)C)C(=O)N[C@@H](C(C)C)C(=O)N(C)[C@@H](CC(C)C)C(=O)N[C@@H](C)C(=O)N[C@H](C)C(=O)N(C)[C@@H](CC(C)C)C(=O)N(C)[C@@H](CC(C)C)C(=O)N(C)[C@@H](C(C)C)C(=O)N1C (single isomer, unassigned) [Example 7, isomer B] — 2-fold higher, 160 nM
- C/C=C/C[C@@H](C)[C@@H](O)[C@H]1C(=O)N[C@@H](CC)C(=O)N(C)[C@H](CSCCN(C)C)C(=O)N(C)[C@@H](CC(C)C)C(=O)N[C@@H](C(C)C)C(=O)N(C)[C@@H](CC(C)C)C(=O)N[C@@H](C)C(=O)N[C@H](C)C(=O)N(C)[C@@H](CC(C)C)C(=O)N(C)[C@@H](CC(C)C)C(=O)N(C)[C@@H](C(C)C)C(=O)N1C (single isomer, unassigned) [Example 6, isomer B] — 2.1-fold higher, 170 nM
- C/C=C/C[C@@H](C)[C@@H](O)[C@H]1C(=O)N[C@@H](CC)C(=O)N(C)[C@H](SCCCN(CC)CC)C(=O)N(C)[C@@H](C(C)C)C(=O)N[C@@H](C(C)C)C(=O)N(C)[C@@H](CC(C)C)C(=O)N[C@@H](C)C(=O)N[C@H](C)C(=O)N(C)[C@@H](CC(C)C)C(=O)N(C)[C@@H](CC(C)C)C(=O)N(C)[C@@H](C(C)C)C(=O)N1C [[(R)-3-(N,N-Diethylamino)propylthio-Sar]-3-[N-MeVal]-4-cyclosporin] (cyclo(A[dA][NMeL][NMeL][NMeV][MeBmt][Abu][X1][NMeV]V[NMeL])) — within 1.5-fold, 70 nM

same assay, conditions: Hepatitis C virus, Huh-7, Table 15, HCV replicon, read-out: Antiviral activity EC50

Point of comparison: `C/C=C/C[C@@H](C)[C@@H](O)[C@H]1C(=O)N[C@@H](CC)C(=O)N(C)[C@H](CSCCCCC(C)(C)O)C(=O)N(C)[C@@H](CC(C)(C)O)C(=O)N[C@@H](C(C)C)C(=O)N(C)[C@@H](CC(C)C)C(=O)N[C@@H](C)C(=O)N[C@H](C)C(=O)N(C)[C@@H](CC(C)C)C(=O)N(C)[C@@H](CC(C)C)C(=O)N(C)[C@@H](C(C)C)C(=O)N1C`, EC50 60 nM. Against it:
- C/C=C/C[C@@H](C)[C@@H](O)[C@H]1C(=O)N[C@@H](CC)C(=O)N(C)[C@H](CSCC[C@@H](CO)CCC)C(=O)N(C)[C@@H](CC(C)(C)O)C(=O)N[C@@H](C(C)C)C(=O)N(C)[C@@H](CC(C)C)C(=O)N[C@@H](C)C(=O)N[C@H](C)C(=O)N(C)[C@@H](CC(C)C)C(=O)N(C)[C@@H](CC(C)C)C(=O)N(C)[C@@H](C(C)C)C(=O)N1C — within 1.5-fold, 70 nM
- C/C=C/C[C@@H](C)[C@@H](O)[C@H]1C(=O)N[C@@H](CC)C(=O)N(C)[C@H](CSCC[C@H](CO)CCC)C(=O)N(C)[C@@H](CC(C)(C)O)C(=O)N[C@@H](C(C)C)C(=O)N(C)[C@@H](CC(C)C)C(=O)N[C@@H](C)C(=O)N[C@H](C)C(=O)N(C)[C@@H](CC(C)C)C(=O)N(C)[C@@H](CC(C)C)C(=O)N(C)[C@@H](C(C)C)C(=O)N1C — within 1.5-fold, 70 nM
- C/C=C/C[C@@H](C)[C@@H](O)[C@H]1C(=O)N[C@@H](CC)C(=O)N(C)[C@H](CSC/C(=C/CN(CC)CC)CCC)C(=O)N(C)[C@@H](CC(C)(C)O)C(=O)N[C@@H](C(C)C)C(=O)N(C)[C@@H](CC(C)C)C(=O)N[C@@H](C)C(=O)N[C@H](C)C(=O)N(C)[C@@H](CC(C)C)C(=O)N(C)[C@@H](CC(C)C)C(=O)N(C)[C@@H](C(C)C)C(=O)N1C — the same, 60 nM

same assay, conditions: Table 10, HCV replicon, read-out: Antiviral activity EC50

Point of comparison: `C/C=C/C[C@@H](C)[C@@H](O)[C@H]1C(=O)N[C@@H](CC)C(=O)N(C)[C@@H](SCCN(CC)CC)C(=O)N(C)[C@@H](C(C)C)C(=O)N[C@@H](C(C)C)C(=O)N(C)[C@@H](CC(C)C)C(=O)N[C@@H](C)C(=O)N[C@H](C)C(=O)N(C)[C@@H](CC(C)C)C(=O)N(C)[C@@H](CC(C)C)C(=O)N(C)[C@@H](C(C)C)C(=O)N1C` [(S)-2-(N,N-Diethylamino)ethylthio-Sar]-3-[N-MeVal]-4-cyclosporin] (cyclo(A[dA][NMeL][NMeL][NMeV][MeBmt][Abu][X7][NMeV]V[NMeL])), EC50 3660 nM. Against it:
- CC=CCC(C)C(O)C1C(=O)NC(CC)C(=O)N(C)C(SCCN(CC(C)C)C(C)C)C(=O)N(C)C(CC(C)C)C(=O)NC(C(C)C)C(=O)N(C)C(CC(C)C)C(=O)NC(C)C(=O)NC(C)C(=O)N(C)C(CC(C)C)C(=O)N(C)C(CC(C)C)C(=O)N(C)C(C(C)C)C(=O)N1C [(S)-2-(N-iso-Butyl-N-iso-propylamino)ethylthio-Sar]-3-cyclosporin] — within 1.5-fold, 4650 nM
- C/C=C/C[C@@H](C)[C@@H](O)[C@H]1C(=O)N[C@@H](CC)C(=O)N(C)[C@H](SCCN(CC)CC)C(=O)N(C)[C@@H](C(C)C)C(=O)N[C@@H](C(C)C)C(=O)N(C)[C@@H](CC(C)C)C(=O)N[C@@H](C)C(=O)N[C@H](C)C(=O)N(C)[C@@H](CC(C)C)C(=O)N(C)[C@@H](CC(C)C)C(=O)N(C)[C@@H](C(C)C)C(=O)N1C [(R)-2-(N,N-Diethylamino)ethylthio-Sar]-3-[N-MeVal]-4-cyclosporin] (cyclo(A[dA][NMeL][NMeL][NMeV][MeBmt][Abu][X2][NMeV]V[NMeL])) — 92-fold lower, 40 nM
- (S)-2-(N,N-Diethylamino)ethylthio-Sar]-3-[N-MeIle]-4-cyclosporin — 2-fold lower, 1870 nM
- (R)-2-(N-iso-Butyl-N-iso-propylamino)ethylthio-Sar]-3-cyclosporin — 7.6-fold lower, 480 nM

same assay, conditions: Table 11, HCV replicon, read-out: Antiviral activity EC50

Point of comparison: `C/C=C/C[C@@H](C)[C@@H](O)[C@H]1C(=O)N[C@@H](CC)C(=O)N(C)[C@H](SCCCN2CCOCC2)C(=O)N(C)[C@@H](CC(C)(C)OCc2ccc(OC)cc2)C(=O)N[C@@H](C(C)C)C(=O)N(C)[C@@H](CC(C)C)C(=O)N[C@@H](C)C(=O)N[C@H](C)C(=O)N(C)[C@@H](CC(C)C)C(=O)N(C)[C@@H](CC(C)C)C(=O)N(C)[C@@H](C(C)C)C(=O)N1C` (cyclo(A[dA][NMeL][NMeL][NMeV][MeBmt][Abu][X3][X12]V[NMeL])), EC50 280 nM. Against it:
- CC=CCC(C)C(O)C1C(=O)NC(CC)C(=O)N(C)C(SCCCN2CCOCC2)C(=O)N(C)C(CC(C)(C)OCOCC)C(=O)NC(C(C)C)C(=O)N(C)C(CC(C)C)C(=O)NC(C)C(=O)NC(C)C(=O)N(C)C(CC(C)C)C(=O)N(C)C(CC(C)C)C(=O)N(C)C(C(C)C)C(=O)N1C (centres unmarked) (cyclo([X4][Abu][X9][X13]V[NMeL]AA[NMeL][NMeL][NMeV]); configuration not given here) — 1.8-fold lower, 160 nM
- C/C=C/C[C@@H](C)[C@@H](O)[C@H]1C(=O)N[C@@H](CC)C(=O)N(C)[C@H](SCCCN2CCOCC2)C(=O)N(C)[C@@H](CC(C)(C)OCc2ccccc2)C(=O)N[C@@H](C(C)C)C(=O)N(C)[C@@H](CC(C)C)C(=O)N[C@@H](C)C(=O)N[C@H](C)C(=O)N(C)[C@@H](CC(C)C)C(=O)N(C)[C@@H](CC(C)C)C(=O)N(C)[C@@H](C(C)C)C(=O)N1C [[(R)-(3-(N-Morpholino)propylthio-Sar]-3-[(γ-benzyloxy)-N-MeLeu]-4-cyclosporin] (cyclo(A[dA][NMeL][NMeL][NMeV][MeBmt][Abu][X3][X8]V[NMeL])) — the same, 280 nM
